≈ marks a conversion by molar mass, not a printed value.
Tested on: P. aeruginosa ATCC 27853 (wild-type/QC strain)
Test: broth microdilution MIC assay, P. aeruginosa 27853
Format: cell-based
Conditions: Pseudomonas aeruginosa, ATCC27853; read-out: MIC, P. aeruginosa 27853
Summary of the method: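 Following CLSI methods, 2-fold compound dilutions are challenged with 5×10^5 CFU/mL bacteria in cation-supplemented Mueller-Hinton broth. After 16-20 hours at 37° C, the lowest well showing no bacterial growth is taken as the MIC.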

Q: `C[C@@H](O)[C@H]1C(=O)N2C(C(=O)O)=C(S[C@@H]3CCN(C[C@H]4CC[C@H](NC(=N)N)CC4)C3)[C@H](C)[C@H]12` [Example 28, (4R,5S,6S)-3-(((R)-1-(((1R,4R)-4-guanidinocyclohexyl)methyl)pyrrolidin-3-yl)thio)-6-((R)-1-hydroxyethyl)-4-methyl-7-oxo-1-azabicyclo[3.2.0]hept-2-ene-2-carboxylic acid] was tested. Which MIC did it give?
A: The MIC was 1 to 4 µg/mL (≈ 2.15 to 8.59 µM).

From patent US20230127944A1, “BROAD-SPECTRUM CARBAPENEMS” (priority 2019, published 2023)
